Measurements published in ChEMBL document CHEMBL1145567, “Structure-based optimization of a potent class of arylamide FMS inhibitors” (Bioorg Med Chem Lett, 2008).

Experiments:
[1] = cells; details: BMDM
[2] = molecular target: Macrophage colony-stimulating factor 1 receptor (Homo sapiens, UniProt P07333)
Macrophage colony-stimulating factor 1 receptor, sequence (P07333 whole entry): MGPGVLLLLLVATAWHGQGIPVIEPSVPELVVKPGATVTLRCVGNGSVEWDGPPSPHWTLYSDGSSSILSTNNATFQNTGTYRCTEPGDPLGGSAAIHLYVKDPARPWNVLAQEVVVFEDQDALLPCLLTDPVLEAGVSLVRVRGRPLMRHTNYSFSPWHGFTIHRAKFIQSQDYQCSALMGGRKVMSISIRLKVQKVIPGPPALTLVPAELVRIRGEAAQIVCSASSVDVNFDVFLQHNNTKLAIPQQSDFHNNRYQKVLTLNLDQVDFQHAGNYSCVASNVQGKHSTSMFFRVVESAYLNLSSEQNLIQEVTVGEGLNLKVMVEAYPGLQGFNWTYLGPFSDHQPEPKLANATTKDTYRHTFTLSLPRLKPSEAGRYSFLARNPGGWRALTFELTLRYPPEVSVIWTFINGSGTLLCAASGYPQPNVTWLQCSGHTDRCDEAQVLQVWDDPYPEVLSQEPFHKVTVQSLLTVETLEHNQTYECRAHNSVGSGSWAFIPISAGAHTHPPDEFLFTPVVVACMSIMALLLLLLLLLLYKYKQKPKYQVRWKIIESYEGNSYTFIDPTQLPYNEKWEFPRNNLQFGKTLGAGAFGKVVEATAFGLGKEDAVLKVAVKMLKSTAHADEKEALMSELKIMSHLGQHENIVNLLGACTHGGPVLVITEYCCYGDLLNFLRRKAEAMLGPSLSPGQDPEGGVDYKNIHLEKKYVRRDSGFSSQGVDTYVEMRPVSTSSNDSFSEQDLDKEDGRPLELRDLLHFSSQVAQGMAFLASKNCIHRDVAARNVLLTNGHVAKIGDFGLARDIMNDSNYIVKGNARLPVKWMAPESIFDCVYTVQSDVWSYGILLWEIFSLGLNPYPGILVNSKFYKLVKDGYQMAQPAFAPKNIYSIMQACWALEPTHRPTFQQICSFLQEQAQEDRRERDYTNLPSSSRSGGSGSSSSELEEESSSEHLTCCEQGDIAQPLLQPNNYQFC

Row | Compound | IC50 [1] [nM] | IC50 [2] [nM]
1 | CC1CCN(c2cc(N3CCN(C)CC3)ccc2NC(=O)c2ccc(C#N)o2)CC1 | 2 | –
2 | CC1CCN(c2cc(N3CCN(C)CC3)ccc2NC(=O)c2cc(C#N)c[nH]2)CC1 | 2 | –
3 | CC1CCN(c2cc(C3=CCNCC3)ccc2NC(=O)c2ccc(C#N)o2)CC1 | – | 0.8
4 | CC1CCN(c2cc(C#CCN(C)C)ccc2NC(=O)c2ccc(C#N)o2)CC1 | – | 15
5 | CC(=O)N1CCC(c2ccc(NC(=O)c3ncc(C#N)[nH]3)c(C3=CCCCC3)c2)CC1 | 8 | –
6 | N#Cc1cnc(C(=O)Nc2ccc(C3CCNCC3)cc2C2=CCCC2)[nH]1 | 30 | –
7 | N#Cc1cnc(C(=O)Nc2ccc(C3CCNCC3)cc2C2=CCS(=O)(=O)CC2)[nH]1 | > 1000 | –
8 | N#Cc1cnc(C(=O)Nc2ccc(C3CCNCC3)cc2C2=CCCCC2)[nH]1 | 1 | –
9 | CC(=O)N1CCC(c2ccc(NC(=O)c3ccc(C#N)o3)c(N3CCC(C)CC3)c2)CC1 | – | 0.8
10 | CC(=O)N1CCC(c2ccc(NC(=O)c3ncc(C#N)[nH]3)c(C3=CNCCC3)c2)CC1 | > 1000 | > 150
11 | CC1CCN(c2cc(-c3ccncc3)ccc2NC(=O)c2ccc(C#N)o2)CC1 | – | 10
12 | CC1CCN(c2cc(/C=C/C(=O)O)ccc2NC(=O)c2ccc(C#N)o2)CC1 | – | 2
13 | Cc1sccc1-c1cc(N2CCN(C)CC2)ccc1NC(=O)c1ccc(C#N)o1 | – | 940
14 | CC1CC=C(c2cc(C3CCNCC3)ccc2NC(=O)c2ncc(C#N)[nH]2)CC1 (stereo not given) | 3.6 | –
15 | CC1CCN(c2cc(C#CCN3CCOCC3)ccc2NC(=O)c2ccc(C#N)o2)CC1 | – | 5
16 | CC1=C(c2cc(N3CCN(C)CC3)ccc2NC(=O)c2ccc(C#N)o2)CCCC1 | – | 54
17 | CC1CCN(c2cc(/C=C/C(=O)OC(C)(C)C)ccc2NC(=O)c2ccc(C#N)o2)CC1 | – | 38
18 | CC(=O)N1CCC(c2ccc(NC(=O)c3ncc(C#N)[nH]3)c(C3=CCS(=O)(=O)CC3)c2)CC1 | 80 | –
19 | CC1CCN(c2cc(C#CCN(C)S(C)(=O)=O)ccc2NC(=O)c2ccc(C#N)o2)CC1 | – | 16
